Assay results from paper PMC10816221, “A Versatile Aldehyde: Ferredoxin Oxidoreductase from the Organic Acid Reducing Thermoanaerobacter sp. Strain X514” (International Journal of Molecular Sciences, 2024).

Molecular target: T1, AORX514 (AOR-His) (Thermoanaerobacter pseudethanolicus, UniProt B0K8P3)
T1 construct: gene Teth39_0850; full length, C-terminal 6xHis (plasmid pJM009), made in Thermoanaerobacter kivui MB014; W-containing, FeS cluster
Assay: acetaldehyde-dependent viologen reduction at […] nm; substrate inhibition kinetics
Type: biochemical
Conditions: benzyl viologen as electron acceptor, routine assay 50 mM TRIS pH 7.5, 65 °C, anoxic

T1 sequence (B0K8P3 1-599): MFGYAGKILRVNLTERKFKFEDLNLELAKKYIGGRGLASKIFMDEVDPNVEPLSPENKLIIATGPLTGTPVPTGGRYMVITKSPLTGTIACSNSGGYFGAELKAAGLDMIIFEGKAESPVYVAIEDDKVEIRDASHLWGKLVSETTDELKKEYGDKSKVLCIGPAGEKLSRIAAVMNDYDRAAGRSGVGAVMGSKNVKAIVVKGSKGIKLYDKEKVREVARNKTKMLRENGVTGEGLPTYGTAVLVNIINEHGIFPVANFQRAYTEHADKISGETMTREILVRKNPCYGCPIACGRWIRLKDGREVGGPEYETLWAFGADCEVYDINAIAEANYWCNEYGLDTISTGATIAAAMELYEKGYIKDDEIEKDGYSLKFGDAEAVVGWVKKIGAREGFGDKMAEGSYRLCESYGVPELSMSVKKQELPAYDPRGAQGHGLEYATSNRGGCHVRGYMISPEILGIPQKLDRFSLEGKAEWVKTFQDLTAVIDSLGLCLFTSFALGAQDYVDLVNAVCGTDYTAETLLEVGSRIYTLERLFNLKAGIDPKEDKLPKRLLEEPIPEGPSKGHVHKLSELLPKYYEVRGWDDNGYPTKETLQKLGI

With `CC=O` [Acetaldehyde] the ki was 8.7 ± 1.3 mM.
